# Data reported in paper PMC5766233, “Ternary copper(II) complex: NCI60 screening, toxicity studies, and evaluation of efficacy in xenograft models of nasopharyngeal carcinoma” (PLoS ONE, 2018).
# Experiment: Acute in vivo toxicity, single dose
# Design: species or system NOD scid gamma female mice
# Description: Acute toxicity caused by the complex was tested on a method modified from the NCI single dose method. The experiment was performed to find the maximum tolerated dose (MTD) for the calculation of doses for repeat-dose animal testing; the experiment was designed to minimize both the use of compound tested and the number of animals to be sacrificed. […] Five doses, viz. 35.0, 17.5, 12.5, 7.5 and 5.5 mg/kg body weight of the Cu(II) complex, were injected intraperitoneally as single doses into each mouse respectively and the mice were observed daily for 14 days for drug-induced toxicity. The findings of the acute toxicity study are listed in S1 Table.
# Determination of acute toxicity was carried out using a method adapted from the NCI [43]. Five mice were randomly separated into five cages. Five doses, i.e. 35.0, 17.5, 12.5, 7.5 and 5.5 mg/kg of body weight of Cu(II) complex were injected intraperitoneally as a single dose into each mouse respectively. After the drug administration, mice were observed hourly for any signs of toxicity, mortality, changes in general behavior and physical activities for the first 4 hours, then 4 hourly for 1 day followed by daily observation for 2 weeks. The signs which were monitored and recorded during this study included hypoactivity, lethargy, hypoapnoea, abnormal gait and posture, tremors, arching and rolling, convulsions, salivation and diarrhea. Mouse death during the period of observation was considered as death due to toxic effects of the test compound. The lethal dose and maximum tolerated dose (MTD) were determined during this study. At the end of the experiment, the survivors were sacrificed for necropsy. Gross and histopathological examinations were performed on the major internal organs including the heart, lung, liver, kidney and spleen.
compound,measurement,setting,value
"CC(C)(N)C(=O)[O-].O.O=[N+]([O-])[O-].[Cu+2].c1cnc2c(c1)ccc1cccnc12 [Cu(II) complex, [Cu(phen)(C-dmg)(H2O)]NO3]",Mortality,5.5 mg/kg single ip dose,No
same,Observation of mice behavioral and physical changes (after injection),5.5 mg/kg single ip dose,No clinical signs occurred. It showed normal behavior patterns when provoked.
same,Observation of mice behavioral and physical changes (later),5.5 mg/kg single ip dose,Normal behavior and activities.
same,Mortality,7.5 mg/kg single ip dose,No
same,Observation of mice behavioral and physical changes (after injection),7.5 mg/kg single ip dose,No abnormal clinical signs occurred. It showed normal behavior patterns when provoked.
same,Observation of mice behavioral and physical changes (later),7.5 mg/kg single ip dose,Normal behavior and activities.
same,Mortality,12.5 mg/kg single ip dose,No
same,Observation of mice behavioral and physical changes (after injection),12.5 mg/kg single ip dose,"After drug injection, mouse stayed at corner of its cage but resumed its normal behavior and physical activities after 45 min. Body movement happened. It showed normal behavior patterns when provoked."
same,Observation of mice behavioral and physical changes (later),12.5 mg/kg single ip dose,Normal behavior and activities.
same,Mortality,17.5 mg/kg single ip dose,No
same,Observation of mice behavioral and physical changes (after injection),17.5 mg/kg single ip dose,"After drug injection, mouse stayed at corner of the cage but resumed its normal behavior and physical activities after 45 min. Body movement happened. It showed normal behavior patterns when provoked."
same,Observation of mice behavioral and physical changes (later),17.5 mg/kg single ip dose,Normal behavior and activities.
same,"Histopathological examination, spleen",35 mg/kg single ip dose,increased in multinucleated giant cells
same,Mortality,35.0 mg/kg single ip dose,Yes
same,Observation of mice behavioral and physical changes (after injection),35.0 mg/kg single ip dose,"Mouse was immobile and staying at one corner of the cage about 30 min after drug injection. After 0.5, 1, 2, 3 & 4 h, it was still immobile. Unresponsive to provocation."
same,Observation of mice behavioral and physical changes (later),35.0 mg/kg single ip dose,It was found dead on Day 2; blood stained urine noted.
same,MTD,"single dose treatment, intraperitoneal, estimated",17.5 mg/kg
same,LD50,"single intraperitoneal dose, estimated",26.25 mg/kg
same,"Histopathological examination, all organs examined",single ip doses other than 35 mg/kg,no significant morphological changes
